From PubChem BioAssay AID1918953 (Molecular Pharmacology Branch, DTP, NCI, 2023)

Tested on: MDA-MB-231 complex spheroid viability
Assay: Anticancer human tumor MDA-MB-231/ATCC cell line growth inhibition;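 note: drug exposure lasted 7 days starting on day 3 of spheroid growth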
Conditions: for IC50: curve of first compound; for viability, T/C: stronger effect = lower value
Outline: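 Complex spheroids of tumor cells with HUVEC and human MSCs, exposed to iadademstat combined with other agents. Each agent tested in half-log steps from near clinical Cmax (else 10 microM top), DMSO ≤0.25%.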

[1] = second compound 0.1 µM, first compound 0.000949 µM
[2] = second compound 0.1 µM, first compound 0.003 µM
[3] = second compound 0.1 µM, first compound 0.00949 µM
[4] = second compound 0.1 µM, first compound 0.03 µM
[5] = second compound 0.1 µM, first compound 0.0949 µM
[6] = second compound 0.1 µM, first compound 0.3 µM
[7] = second compound 0.316 µM, first compound 0.000949 µM
[8] = second compound 0.316 µM, first compound 0.003 µM
[9] = second compound 0.316 µM, first compound 0.00949 µM
[10] = second compound 0.316 µM, first compound 0.03 µM
[11] = second compound 0.316 µM, first compound 0.0949 µM
[12] = second compound 0.316 µM, first compound 0.3 µM
[13] = second compound 1 µM, first compound 0.000949 µM
[14] = second compound 1 µM, first compound 0.003 µM
[15] = second compound 1 µM, first compound 0.00949 µM
[16] = second compound 1 µM, first compound 0.03 µM
[17] = second compound 1 µM, first compound 0.0949 µM
[18] = second compound 1 µM, first compound 0.3 µM
[19] = second compound 3.16 µM, first compound 0.000949 µM
[20] = second compound 3.16 µM, first compound 0.003 µM
[21] = second compound 3.16 µM, first compound 0.00949 µM
[22] = second compound 3.16 µM, first compound 0.03 µM
[23] = second compound 3.16 µM, first compound 0.0949 µM
[24] = second compound 3.16 µM, first compound 0.3 µM
[25] = second compound 10 µM, first compound 0.000949 µM
[26] = second compound 10 µM, first compound 0.003 µM
[27] = second compound 10 µM, first compound 0.00949 µM
[28] = second compound 10 µM, first compound 0.03 µM
[29] = second compound 10 µM, first compound 0.0949 µM
[30] = second compound 10 µM, first compound 0.3 µM

CC[C@@]1(O)C(=O)OCc2c1cc1n(c2=O)Cc2cc3c(CN(C)C)c(O)ccc3nc2-1 + NC1CC1c1ccc(-c2cccc(O)c2)cc1
IC50 (second compound 0.1 µM): 1.63 nM
IC50 (second compound 0.316 µM): 0.845 nM
IC50 (second compound 1 µM): 0.672 nM
IC50 (second compound 3.16 µM): 1.04 nM
IC50 (second compound 10 µM): < 0.316 nM
viability, T/C (second compound 0.1 µM, first compound 0.000316 µM): 72.6%
viability, T/C (second compound 0.1 µM, first compound 0.001 µM): 62.5%
viability, T/C (second compound 0.1 µM, first compound 0.00316 µM): 33.1%
viability, T/C (second compound 0.1 µM, first compound 0.01 µM): 23.5%
viability, T/C (second compound 0.1 µM, first compound 0.0316 µM): 27.3%
viability, T/C (second compound 0.1 µM, first compound 0.1 µM): 22%
viability, T/C (second compound 0.316 µM, first compound 0.000316 µM): 61.8%
viability, T/C (second compound 0.316 µM, first compound 0.001 µM): 48.1%
viability, T/C (second compound 0.316 µM, first compound 0.00316 µM): 28.9%
viability, T/C (second compound 0.316 µM, first compound 0.01 µM): 25.3%
viability, T/C (second compound 0.316 µM, first compound 0.0316 µM): 26%
viability, T/C (second compound 0.316 µM, first compound 0.1 µM): 20.4%
viability, T/C (second compound 1 µM, first compound 0.000316 µM): 62.3%
viability, T/C (second compound 1 µM, first compound 0.001 µM): 43.6%
viability, T/C (second compound 1 µM, first compound 0.00316 µM): 32%
viability, T/C (second compound 1 µM, first compound 0.01 µM): 25.1%
viability, T/C (second compound 1 µM, first compound 0.0316 µM): 24.6%
viability, T/C (second compound 1 µM, first compound 0.1 µM): 20.5%
viability, T/C (second compound 3.16 µM, first compound 0.000316 µM): 57.2%
viability, T/C (second compound 3.16 µM, first compound 0.001 µM): 50.8%
viability, T/C (second compound 3.16 µM, first compound 0.00316 µM): 29.4%
viability, T/C (second compound 3.16 µM, first compound 0.01 µM): 25.5%
viability, T/C (second compound 3.16 µM, first compound 0.0316 µM): 25%
viability, T/C (second compound 3.16 µM, first compound 0.1 µM): 20.9%
viability, T/C (second compound 10 µM, first compound 0.000316 µM): 49%
viability, T/C (second compound 10 µM, first compound 0.001 µM): 36.1%
viability, T/C (second compound 10 µM, first compound 0.00316 µM): 24.3%
viability, T/C (second compound 10 µM, first compound 0.01 µM): 22.5%
viability, T/C (second compound 10 µM, first compound 0.0316 µM): 22.3%
viability, T/C (second compound 10 µM, first compound 0.1 µM): 16.2%

CCc1c2c(nc3ccc(O)cc13)-c1cc3c(c(=O)n1C2)COC(=O)[C@]3(O)CC + NC1CCC(NC2CC2c2ccccc2)CC1
IC50 (second compound 0.1 µM): < 0.949 nM
IC50 (second compound 0.316 µM): < 0.949 nM
IC50 (second compound 1 µM): < 0.949 nM
IC50 (second compound 3.16 µM): < 0.949 nM
IC50 (second compound 10 µM): < 0.949 nM
viability, T/C [1]: 17.1%
viability, T/C [2]: 12.7%
viability, T/C [3]: 12%
viability, T/C [4]: 14%
viability, T/C [5]: 5.37%
viability, T/C [6]: 2.95%
viability, T/C [7]: 17.7%
viability, T/C [8]: 13.5%
viability, T/C [9]: 12%
viability, T/C [10]: 16%
viability, T/C [11]: 5.44%
viability, T/C [12]: 2.86%
viability, T/C [13]: 19.1%
viability, T/C [14]: 14.6%
viability, T/C [15]: 13.7%
viability, T/C [16]: 15.5%
viability, T/C [17]: 4.76%
viability, T/C [18]: 2.64%
viability, T/C [19]: 17%
viability, T/C [20]: 15.3%
viability, T/C [21]: 16.5%
viability, T/C [22]: 13.6%
viability, T/C [23]: 4.18%
viability, T/C [24]: 1.91%
viability, T/C [25]: 13.9%
viability, T/C [26]: 14%
viability, T/C [27]: 20.1%
viability, T/C [28]: 13.4%
viability, T/C [29]: 3.42%
viability, T/C [30]: 1.8%

Nc1ncn(C2CC(O)C(CO)S2)c(=O)n1 (stereo not given) + NC1CCC(NC2CC2c2ccccc2)CC1
IC50 (second compound 0.1 µM): 19.9 nM
IC50 (second compound 0.316 µM): 21.2 nM
IC50 (second compound 1 µM): 14.7 nM
IC50 (second compound 3.16 µM): 8.38 nM
IC50 (second compound 10 µM): 3.2 nM
viability, T/C [1]: 94.4%
viability, T/C [2]: 78.2%
viability, T/C [3]: 63%
viability, T/C [4]: 44.3%
viability, T/C [5]: 24.2%
viability, T/C [6]: 12.3%
viability, T/C [7]: 93.2%
viability, T/C [8]: 77.5%
viability, T/C [9]: 65.1%
viability, T/C [10]: 46.4%
viability, T/C [11]: 21.9%
viability, T/C [12]: 12%
viability, T/C [13]: 95.2%
viability, T/C [14]: 77.8%
viability, T/C [15]: 58.5%
viability, T/C [16]: 37.7%
viability, T/C [17]: 19.5%
viability, T/C [18]: 11.2%
viability, T/C [19]: 77.2%
viability, T/C [20]: 62.6%
viability, T/C [21]: 49.9%
viability, T/C [22]: 32%
viability, T/C [23]: 17.9%
viability, T/C [24]: 12%
viability, T/C [25]: 61.2%
viability, T/C [26]: 50.1%
viability, T/C [27]: 37.6%
viability, T/C [28]: 23.8%
viability, T/C [29]: 15.9%
viability, T/C [30]: 12.6%
